Reference: article PMC10298982, “Stability Characterization of the Novel Anti-Cancer HM-10/10 HDL-Mimetic Peptide” (International Journal of Molecular Sciences, 2023)
Where two headings read alike, the source gives them in different places. Ends that are not written are not given here.

What was measured:
[1] = Metabolic stability in cryopreserved human hepatocytes; format: in vitro ADME; conditions: Human hepatocytes 0.5 million cells/mL; for CLint scaled: hepatocytes
CYP2B6 = biological target: T1, CYP2B6 (Homo sapiens, UniProt P20813); conditions: microsomes
T1 sequence (P20813 1-491): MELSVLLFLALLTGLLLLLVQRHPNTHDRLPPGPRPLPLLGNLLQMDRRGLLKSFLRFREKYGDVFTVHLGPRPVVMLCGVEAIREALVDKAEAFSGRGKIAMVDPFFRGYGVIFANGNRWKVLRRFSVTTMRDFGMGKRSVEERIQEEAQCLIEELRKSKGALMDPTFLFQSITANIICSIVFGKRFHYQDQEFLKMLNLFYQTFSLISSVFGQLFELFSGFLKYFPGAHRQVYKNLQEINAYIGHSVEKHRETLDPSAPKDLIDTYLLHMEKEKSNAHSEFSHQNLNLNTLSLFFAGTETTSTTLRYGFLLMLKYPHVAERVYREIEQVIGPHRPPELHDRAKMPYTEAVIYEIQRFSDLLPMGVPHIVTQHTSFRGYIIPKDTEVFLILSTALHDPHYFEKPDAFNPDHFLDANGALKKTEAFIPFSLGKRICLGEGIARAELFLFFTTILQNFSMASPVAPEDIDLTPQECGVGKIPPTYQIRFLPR

[2] = CYP450 time-dependent inhibition, all isoenzymes together; format: in vitro ADME, human; conditions: all isoenzymes; +/− NADPH, with and without 30-min preincubation; read-out: Inhibition of CYP450 isoenzymes at 50 µM (maximum test concentration)
[3] = system: CYP450 isoenzymes (1A2, 2B6, 2C8, 2C9, 2C19, 2D6 and 3A4); assay: as above; format: in vitro ADME, human
CYP2C9 = CYP2C9 (Homo sapiens, UniProt P11712); conditions: microsomes
Sequence of CYP2C9 (P11712 whole entry): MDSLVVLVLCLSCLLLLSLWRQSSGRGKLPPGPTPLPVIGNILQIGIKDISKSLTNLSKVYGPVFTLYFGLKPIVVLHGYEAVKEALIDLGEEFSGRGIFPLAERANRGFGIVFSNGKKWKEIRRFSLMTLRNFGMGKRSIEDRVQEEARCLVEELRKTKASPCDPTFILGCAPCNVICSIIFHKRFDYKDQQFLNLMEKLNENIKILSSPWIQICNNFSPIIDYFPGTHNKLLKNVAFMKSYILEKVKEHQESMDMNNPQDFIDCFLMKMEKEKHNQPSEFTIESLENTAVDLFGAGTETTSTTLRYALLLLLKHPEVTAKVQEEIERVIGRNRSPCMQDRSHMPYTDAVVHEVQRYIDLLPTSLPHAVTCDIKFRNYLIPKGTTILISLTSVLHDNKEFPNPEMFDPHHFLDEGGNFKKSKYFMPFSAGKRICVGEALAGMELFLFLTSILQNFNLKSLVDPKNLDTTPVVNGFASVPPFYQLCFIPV

CYP1A2 = CYP1A2 induction (mRNA expression) in single-donor human hepatocytes; format: in vitro ADME
Experimental: RNA isolation and quantification: E-Z 96 Total RNA Kit (Omega Bio-tek, Catalog No. R1034-02) was used for RNA isolation and Quant-iT RNA assay kit (ThermoFisher, Catalog No. Q33140) was used for RNA quantification. The plates were removed from a −80 °C freezer and equilibrated to room temperature. RNA was extracted using the manufacturer’s recommended protocol. Eighty-one microliters of 100% ethanol were added into each well containing 150 µL of lysed sample to make a final ethanol concentration at 35%.
cDNA generation: For cDNA generation, a High-Capacity cDNA Reverse Transcription Kit (Applied Biosystems, Catalog No. 4319983) and QuantStudio 3 PCR system (Applied Biosystems) were used. In this step, 2X Reverse Transcription Master Mix was prepared using the contents of the kit. Then, 10 µL of total RNA was added to 10 µL of 2X Reverse Transcription Master Mix in a microplate and the plate was sealed. This plate was then run in a thermocycler to generate cDNA.
Real time PCR: SsoAdvanced Universal SYBR® Green Supermix (BIO-RAD, Catalog No. 172-5270) and the QuantStudio 3 Real-Time PCR system (Applied Biosystems) were used to perform real-time PCR on the generated cDNA. In this step, a PCR mix was prepared using PCR Supermix, SYBR® primers for the targeted genes, and nuclease-free water. Two microliters of ten-fold diluted cDNA samples (5 µL of cDNA into 45 μL of nuclease-free water) were added to 8 µL of PCR Mix in a microplate and sealed. This plate was then run through the Real-Time PCR system to generate the mRNA expression data.
• Human GAPDH • F: […] • R: […] • Human CYP1A2 • Unique Assay ID: qHsaCID0015160 • Chromosome Location: 15:75045562-75047256 • Human CYP2B6 • F: […] • R: […] • Human CYP3A4 • F: […] • R: […]

[4] = Test article stability over 24 h incubation with hepatocytes in the induction assay; format: in vitro ADME, human; conditions: average of three lots, both days
Experimental: For each 24 h incubation, 50 µL of each medium containing the test article (HM-10/10) were collected at the start (T0) and end of 24 h incubation (T24) and quenched with 300 µL of 1% perchloric acid in methanol and 50 µL of internal standard cocktail (carbutamide, chrysin, and glyburide each at 1.71 µg/mL water). These samples were analyzed to test the stability of HM-10/10 after 24 h incubation with the hepatocytes. The quenched sample plates were stored covered in a −20 °C freezer.

[5] = Protein binding in human plasma (ultracentrifugation); format: in vitro ADME; conditions: pH 7.4, Human plasma (K2EDTA)

% Remaining at 30 min ([1]; 2 μM): 2.5%
half-life at 2 µM ([1]; cryopreserved hepatocytes): 5.28 min
remaining at 0.5 h, 2 µM ([1]; human, cryopreserved hepatocytes, read-out: % Remaining at 30 min): 2.47%
CLint scaled ([1]; human, 2 μM, read-out: CLint (L/hr/kg) (converted)): 42.5 L/h/kg
CLint scaled ([1]; human, 2 μM, read-out: CLint (mL/min/kg)): 42.5 L/h/kg
% Inhibition at 50 µM No PI + NADPH (CYP2B6): 17.3%
% Inhibition at 50 µM No PI − NADPH (CYP2B6): 25.2%
% Inhibition at 50 µM PI + NADPH (CYP2B6): 28.4%
% Inhibition at 50 µM PI − NADPH (CYP2B6): 42.2%
inhibition at 50 µM [2]: -26.4 to 42.2%
Inhibition of CYP450 isoenzymes at 50 µM (maximum test concentration) ([3]; all isoenzymes, +/− NADPH, with and without 30-min preincubation): No inhibition to minimal inhibition
Inhibition of CYP isozymes at 50 µM with pre-incubation in the presence of 1 mM NADPH ([3]; all isozymes, pooled human liver microsomes 0.1 mg/mL): less than 30%
Time-dependent inhibition (TDI) of CYP450 isoenzymes ([3]; up to 50 µM, all isoenzymes): no TDI
% Inhibition at 50 µM No PI + NADPH (CYP2C9): 8.6%
% Inhibition at 50 µM No PI − NADPH (CYP2C9): 0.4%
% Inhibition at 50 µM PI + NADPH (CYP2C9): 1.7%
% Inhibition at 50 µM PI − NADPH (CYP2C9): 0.5%
Fold Increase (mRNA Expression) Lot HH1086 (CYP1A2; 2 µM): 1.69 fold
Fold Increase (mRNA Expression) Lot HH1142 (CYP1A2; 2 µM): 2.24 fold
Fold Increase (mRNA Expression) Lot HH1144 (CYP1A2; 2 µM): 1.81 fold
Fold Increase (mRNA Expression) Mean of 3 Lots (CYP1A2; 2 µM): 1.91 fold
Comments (mRNA induction) (CYP1A2; 10 µM): Induction Observed
Fold Increase (mRNA Expression) Lot HH1086 (CYP1A2; 10 µM): 2.75 fold
Fold Increase (mRNA Expression) Lot HH1142 (CYP1A2; 10 µM): 3.24 fold
Fold Increase (mRNA Expression) Lot HH1144 (CYP1A2; 10 µM): 1.75 fold
Fold Increase (mRNA Expression) Mean of 3 Lots (CYP1A2; 10 µM): 2.58 fold
Comments (mRNA induction) (CYP1A2; 25 µM): Induction Observed
Fold Increase (mRNA Expression) Lot HH1086 (CYP1A2; 25 µM): 2.74 fold
Fold Increase (mRNA Expression) Lot HH1142 (CYP1A2; 25 µM): 3.01 fold
Fold Increase (mRNA Expression) Lot HH1144 (CYP1A2; 25 µM): 1.13 fold
Fold Increase (mRNA Expression) Mean of 3 Lots (CYP1A2; 25 µM): 2.29 fold
Average % Stability ([4]; 10 µM): 0.7%
remaining at 24 h, 2 µM ([4]; human, plated human hepatocytes, three single-donor lots, 2 µM): 0.6%
remaining at 24 h, 25 µM ([4]; human, plated human hepatocytes, three single-donor lots, 25 µM): 0.3%
remaining at 2.5 h, 2 µM ([5]; 37 °C, read-out: % Stability in Matrix (2.5 h)): 88.5%
fraction unbound at 2.5 h, 2 µM ([5]; 2.5 h at 37 °C, read-out: Fu (Unbound Fraction) Mean ± SD): 0.203 ± 0.055
Sequence: LRKLRKRLLRLVGRQLEEFL [HM-10/10, LRKLRKRLLRLVGRQLEEFL]
